In series [1] the test system is primary human fetal brain cells (HFB). As to the kind of experiment: CTG viability of primary human fetal brain cultures with or without Aβ1-42. It counts as cell-based. Conditions: 50 μM peptide. The protocol: Functional assays in human primary mixed brain cultures (HFB). Primary cultures of mixed HFB were prepared from the brain parenchyma of aborted fetuses (80-100 days gestational age). The tissues were obtained from the Birth Defects Research Laboratory (BDRL) at the University of Washington, Seattle with approval from the Indiana University Institutional Review Board (IRB). The IRB determined that the use of anonymous human biological materials received from this depository is not considered as human subjects research (supplementary document, s1). The NIH funded BDRL tissue distribution program operates separately in full compliance with all relevant state and federal laws and regulations with donors providing written informed consent.
Fetal brain materials (10-20 g) were shipped overnight in chilled Hibernate-E medium (Invitrogen) supplemented with B27 (Invitrogen), GlutaMAX (Invitrogen) and antibiotic-antimycotic solution (Cellgro). HFB were prepared and cultured as described. Briefly, cells were cultured in Neurobasal medium (Invitrogen) without phenol red supplemented with 1×B27, […] GlutaMAX, 1×antibiotic cocktail, 5 ng/mL recombinant fibroblast growth factor 2 (bFGF) (Invitrogen), and 2 μL/mL Normocin (InVivoGen, San Diego, Calif., USA). Cells were counted and seeded onto poly-D-lysine (Sigma-Aldrich) coated 24-well plates (Corning, Lowell, Mass., USA) at 1.5×10^5 cells per well and maintained at 37° C. in a 5% CO2 incubator. Half media changes were performed every 4th day of culture and morphology was monitored via phase contrast microscopy. Culture medium was removed from cells on day 17 (DIV17) and replaced with Neurobasal medium with B27. […] Cells and conditioned media were harvested and stored for further analysis. Relative ATP concentration was measured using the CTG kit (Promega). Data is presented as ΔRLU=RLU of Aβ1-42 exposed cells-RLU unexposed cells. Conditioned media collected were assessed for specific cytokines using the OptEIA kits (BD Biosciences). Nuclear and cytoplasmic fractions were extracted using the CelLytic™ NuCLEAR™ Extraction Kit (Sigma) following manufacturer's protocol. Five microgram of nuclear extracts was incubated in a 96-well plate coated with oligonucleotides containing the NF-κβ consensus nucleotide sequence (5′-[…]-3′) (SEQ ID NO: 30). The activated NF-κβ bound to DNA was detected by anti-p65 antibody followed by a peroxidase coupled secondary antibody and substrate using the TransAM kit protocol (Active Motif). Nuclear extracts of Raji cells was used as the positive control.
Select PGA protects against Aβ1-42 induced toxicity, prevents p65 activation and cytokine response in human fetal brain (HFB) cells. […] Viability in terms of relative luminescent Units (RLU) was quantified using a Glowmax luminometer (Promega, Wis.). Data are presented as ARLU=RLU of Aβ1-42 exposed cells-RLU of unexposed cells. […] The mean RLU of vehicle treated HFB varied between 7352.75+/−1265.2 and 16157.5+/−4950. Average RLU of cultures exposed to Aβ1-42 varied between 6067.25+/−903.05 and 11574.25+/−4139.3 in different experiments. […] The culture supernatants were assessed for cytokines by ELISA (R&D Systems, Minn.). […] Primary HFB cultured similarly and harvested at the end of 4 hours was assessed for nuclear p65 using TransAM kit for NF-κB p65 (Active Motif, Calif.).

Series [2] is described as follows: LD50 predicted from in-vitro IC50 by regression (Speilmann method). As to conditions: Log (LD50)=0.506×(log IC50)+0.475, body weight. The protocol: Lactate dehydrogenase (LDH) assay: To detect direct GA-induced cell lysis we performed LDH release assays (Roche Molecular Diagnostics). […] Approximately 5×10^4 U373 cells/well were cultured in 96-well plates in the presence of increasing concentrations of individual GA or control peptide from 0.5 μM to 500 μM. Cells treated with 2% triton-X 100 (Sigma Aldrich, St. Louis, Mo.) for 10 minutes served as positive control. Untreated cells served as controls for spontaneous LDH-release. Specific LDH-release was calculated according to the following formula: LDH-release %=100*(GA or control peptide treated cells—untreated cells)/(positive control-untreated cells). The IC50 values were extrapolated by logarithmic estimation. The LD50 in mg/kg was predicted using the formula, Log (LD50)=0.506×(log IC50)+0.475. […]

Series [3] concerns differentiated SK-N-SH neuroblastoma cells. Kind of series: Cellular morphology and CTG viability in differentiated neuroblasts. As to conditions: 50 μM or 500 μM, 24 hours; for cell morphology: phase contrast.
Experimental: Cell Titer-Glo (CTG) luminescent cell viability assay: Human neuroblastoma (SK-N-SH) cells cultured in minimal essential medium (MEM) supplemented with 1% fetal bovine serum (FBS) and 1% penicillin (100 U/ml)/streptomycin (100 μg/ml) were differentiated with 10 μM all-trans retinoic acid for 7 days. After resting for 24 hours in the low serum medium, the cells were seeded in 24 well (10^5 cells/well) culture plates in fresh medium and incubated with 50 μM or 500 μM of individual GA or control peptide for additional 24 hours. The cultures were then photographed using a phase contrast Leica microscope (Leica Microsystems Inc, Buffalogrove, Ill.). Subsequently, the cells were harvested, lysed with lysis buffer (M-PER, Pierce) and the lysate was assessed for metabolic activity using the luciferase based CTG assay (CTG, Promega, Madison, Wis.). Briefly, cell lysate (5 μL) in 25 μL of phosphate buffered saline was transferred to an opaque white 96-well plate, and then 30 μL of CTG assay solution was added. The relative luminescent signal (RLT) was quantified using a Glowmax luminometer (Promega).
For series [4], the system named is LPS induced neuroinflammation. As to the kind of experiment: LPS induced neuroinflammation: real time PCR of brain tissue. Format: in vivo, mouse. Conditions: 25 mg/kg i.v. alternate days, day 7. The procedure: Animals and lipopolysaccharide induced neuroinflammation: Male C57/6J mice weighing 32 to 37 grams were housed five per cage at a temperature of 22±2° C. with 12 hour light/12 hour dark cycles with free access to laboratory food and water. Lipopolysaccharides (LPS) from Escherichia coli 026:B6, =10,000 EU/mg, purified by phenol extraction was purchased from Sigma (Sigma Aldrich, Mo., USA). The mice were randomly divided into seven groups: LPS, LPS+GA-1 or GA-2 or CP-1 or CP-2 or CP-3 or TAT. The LPS was administered intraperitoneally at […] in 100 μl of sterile saline followed by corn oil in the morning daily for six days. The GA or CP was administered intravenously at 25 mg/kg in 100 μl of sterile saline on alternate days. Additional control group included mice receiving saline alone. All animals were sacrificed on day 7.
Real time polymerase chain reaction. Total cellular RNA was isolated from each brain tissue using Qiagen kit (Invitrogen, Carlsbad, Calif.) following manufacturer's protocol and reverse transcribed using iScript cDNA synthesis kit (Biorad, Calif.). Equal amount of cDNA measured by the Nanodrop (ThermoFisher Scientific, Waltham, USA) was used for amplification of IL-1β, IL-12, CD14, BclXL and Bcl2. Real time PCR was performed using SYBR green/ROX qPCR master mix (SA Biosciences, Frederick, Md.) on the ABI Prism 7000 sequence detection system (Applied Biosystem, Foster City, Calif., USA). Each reaction contains 2×12.5 μl of master mix, 1 μl of 10 μM of primers and 50 ng of the cDNA, to a total volume of 25 μl. The thermal cycling conditions included an initial denaturation step at 50° C. for 2 min, 95° C. for 3 min, 39 cycles at 95° C. for 30 s, annealing temperature at 62° C. for 30 s and extension at 72° C. for 30 s.
The gene specific threshold cycle (Ct) for each sample (ΔCt) was corrected by subtracting the Ct for the housekeeping gene β-actin. Untreated controls were chosen as the reference samples. The ΔCt for all experimental samples was subtracted by the ΔCt for the control samples (ΔΔCt).The difference in each gene specific threshold between the sample from vehicle treated and GA or CP treated cells was determined to obtain the relative change in the specific mRNA. The magnitude of change in the mRNA was expressed as 2^−ΔΔCt. Each measurement of a sample was performed in duplicates.

Consider three substances from patent publication US11478526B2, “Methods of reducing neuroinflammation or toxicity induced by amyloid beta (abeta) using glucocorticoid induced leucine zipper (GILZ) analog peptides” (INDIANA UNIVERSITY RESEARCH AND TECHNOLOGY CORPORATION, priority 2016, dated 2022).

Ac-EPAPYQPEG-NH2 [CP-1]: the “viability of Aβ1-42 exposed HFB cells” value in series [1] (Aβ1-42 10 μM, vs untreated Aβ1-42 exposed cultures) was “not significant”. Besides, the “LD50 estimated from IC50” value in series [2] is 272.78 mg/kg. In series [3], the “cellular metabolic activity / viability (CTG assay)” value is “did not adversely affect the differentiated neuroblastoma cells” and the cell morphology entry is “no apparent adverse effects on morphology”. In addition, in series [4], the “relative expression of BCl2 in brain tissues” value (“relative expression of BCl2” below) is recorded as 0.36+/−0.8, the “relative expression of BclXL in brain tissues” value is 0.06+/−0.08 and the “relative expression of CD14 mRNA in brain tissues” value (“relative expression of CD14 mRNA” for short) is recorded as 1+/−0.3.

With Ac-EPAPEQPDG-NH2 [CP-2], the “tolerance of HFB cultures (Δ-RLU, CTG)” value in series [1] is “significant toxicity”. The “LD50 estimated from IC50” value in series [2] is on record as 237.52 mg/kg. In series [3], the “cellular metabolic activity / viability (CTG assay)” value is “did not adversely affect the differentiated neuroblastoma cells” and the cell morphology entry is “no apparent adverse effects on morphology”. Besides, in series [4], the “relative expression of BCl2” value was 0.45+/−0.9 and the “relative expression of CD14 mRNA” value is on record as 2.4+/−2.

As to Ac-APKPYQPRG-NH2 [CP-3], in series [1], the “tolerance of HFB cultures (Δ-RLU, CTG)” value was “significant toxicity”. The “LD50 estimated from IC50” value in series [2] is reported as 237.62 mg/kg. For the same substance, in series [3], the “cellular metabolic activity / viability (CTG assay)” value is given as “reduced the viability of the cells at both concentrations tested” and the cell morphology result is reported as “morphological changes consistent with cell death”. In series [4], the “relative expression of BCl2” value was 0.44+/−0.9, the “relative expression of BclXL in brain tissues” value is reported as 0.13+/−0.1 and the “relative expression of CD14 mRNA” value was 1.2+/−0.1.
